Data taken from US20070275464A1, “Chitin Oligosaccharide Elicitor-Binding Proteins” (NATIONAL INSTITUTE OF AGROBIOLOGICAL SCIENCES, priority 2004, published 2007).

Columns and labels:
NT rice cells = assay: Reactive oxygen production due to elicitors in NT cultured rice cells; assay type: cell-based, Oryza sativa L. cv. Nipponbare; settings: (GlcNAc)8 100 ng/mL; FIG. 16
Experimental: (§1) Reactive oxygen production due to sugar elicitor treatment in NT and CEBiP-RNAi cultured rice cells was analyzed as follows: NT rice calli and CEBiP-RNAi rice calli were placed into 100 mL Erlenmeyer flasks containing 30 mL of N6 medium. After culturing at 27° C. for one week, the cells were strained, 0.6 mL of cells were transferred to 30 mL of fresh medium and cultured for another four days. 60 mg or 100 mg of each of the cultured cells were placed into a 2 mL tube, 1 mL of fresh N6 medium was added, and the cells were cultured overnight. (GlcNAc)8 (100 ng/mL), Pseudomonas aeruginosa-derived lipopolysaccharide (LPS, 50 μg/mL, Sigma), and (GlcNH2)7 (2 μg/mL) were used as elicitors. An elicitor was added to NT and CEBiP-RNAi cultured rice cells, treatment was carried out for 30 minutes or two hours, then 25 μL of the medium solution was sampled for reactive oxygen measurements. As a control, a same amount of distilled water (DW) was added, and similar treatments were carried out. Reactive oxygen was measured by adding 25 μL of the reacted solution, 400 μL of 50 mM potassium phosphate buffer (PK, pH 7.9), 25 μL of 1.1 mM luminol, and 50 μL of 14 mM potassium ferricyanide to a tube, mixing, then immediately measuring chemiluminescence counts for ten seconds in a luminometer (Turner Design TD-20/20, Sunnyvale, Calif.).

rice protoplasts = assay: Reactive oxygen production in rice protoplasts, luminol method; assay type: cell-based, Oryza sativa L. cv. Nipponbare; settings: 1 μL of 100 μg/mL (GlcNAc)8, 15 minutes
Experimental: Protoplasts were prepared from cultured rice cells, and the effect of the anti-Con A-CEBiP antibodies on elicitor-responsive reactive oxygen production was examined.
Cultured rice cells were strained through a metal mesh. Four days later, these cells were placed into 14 mL of 0.1% CaCl2, 0.02% MES, 9% Mannitol solution (pH 5.6) containing 2% Cellurase RS (Yakult) and 0.05% Pectolyase Y-23, and then gently shaken at 30° C. for six hours. Cells were filtered through a 25 μm nylon mesh, and the cells on the mesh were washed with 20 mL of Washing buffer (0.1% CaCl2/0.4 M Mannitol) (Nishimura, N., Tanabe, S., He, D.-Y, Yokota, T., Shibuya, N. and Minami, E. Plant Physiol. Biochem., 39, 1105-1110 (2001)). The protoplasts were collected into a 50 mL Falcon tube and recovered by centrifugation at 600 rpm for five minutes. […]
25 μL of the reacted solution, 400 μL of 50 mM potassium phosphate buffer (pH 7.9), 25 μL of 1.1 mM luminol, and 50 μL of 14 mM potassium ferricyanide were stirred in a tube, and immediately thereafter, a chemiluminescence count was measured for ten seconds using a luminometer (Turner Designs TD-20/20, Sunnyvale, Calif.). H2O2 concentration was calculated by producing a standard curve after measuring the luminescence by a commercially available H2O2 solution (aqueous 30% H2O2 solution, Wako Pure Chemical Industry).

NT cultured rice cells = assay: Microarray analysis of elicitor-responsive genes, NT cultured rice cells; assay type: cell-based
Description: (§2) An oligoarray (Agilent) produced from a rice full-length cDNA database was used for the microarray analyses. For the preparation of Cyanine 3 (Cy3)- and Cyanine 5(Cy5)-labeled cRNAs, RNAs isolated from each of the cultured cells of NT and two kinds of CEBiP-RNAi cultured rice cells treated with (GlcNAc)8 for two hours ((GlcNAc)8-NT, (GlcNAc)8-CEBiP-RNAi #3, and (GlcNAc)8-CEBiP-RNAi #6) as well as of cultured cells treated with water as controls were used. Methods for Cy3- and Cy5-labeling and methods for hybridizing the Cy3- and Cy5-labeled samples with slide glasses onto which 22K rice oligoprobes have been attached were carried out according to the protocol from Agilent. The combinations of hybridization reagents that were used were Cy5-labeled (GlcNAc)8-NT/Cy3-labeled NT; [2] Cy5-labeled (GlcNAc)8-CEBiP-RNAi #3/Cy3-labeled CEBiP-RNAi #3; and [3] Cy5-labeled (GlcNAc)8-CEBiP-RNAi #6/Cy3-labeled CEBiP-RNAi #6. Furthermore, experiments in which the labeling reagents were swapped (the labeled forms were interchanged) were also performed. The obtained results were analyzed at http://tos.nias.affrc.go.jp/cgi-bin/tos17/array.cgi.

CEBiP-RNAi #6 rice cells = assay: Microarray analysis of elicitor-responsive genes, CEBiP-RNAi #6 cultured rice cells; assay type: cell-based
Description: as §2

CEBiP-RNAi rice cells = assay: Reactive oxygen production due to elicitors in CEBiP-RNAi cultured rice cells; assay type: cell-based, Oryza sativa L. cv. Nipponbare; settings: (GlcNH2)7 2 μg/mL
Experimental: as §1

CEBiP gene expression = assay: Effect of elicitor on CEBiP expression in cultured cells (FIG. 10); assay type: cell-based, rice
[1] = (GlcNAc)8-NT/NT area, two hours
[2] = (GlcNAc)8 two hours vs water, NT cultured rice cells
[3] = (GlcNAc)8-CEBiP-RNAi #6/CEBiP-RNAi #6 area, two hours
[4] = (GlcNAc)8 two hours vs water, CEBiP-RNAi #6 cells
[5] = CEBiP-RNAi #6 cells vs non-transformant

## CC(=O)N[C@H]1[C@H](O[C@H]2[C@H](O)[C@@H](NC(C)=O)[C@H](O[C@H]3[C@H](O)[C@@H](NC(C)=O)[C@H](O[C@H]4[C@H](O)[C@@H](NC(C)=O)C(O)O[C@@H]4CO)O[C@@H]3CO)O[C@@H]2CO)O[C@H](CO)[C@@H](O[C@@H]2O[C@H](CO)[C@@H](O[C@@H]3O[C@H](CO)[C@@H](O[C@@H]4O[C@H](CO)[C@@H](O[C@@H]5O[C@H](CO)[C@@H](O)[C@H](O)[C@H]5NC(C)=O)[C@H](O)[C@H]4NC(C)=O)[C@H](O)[C@H]3NC(C)=O)[C@H](O)[C@H]2NC(C)=O)[C@@H]1O (stereo partly shown) [(GlcNAc)8]
NT rice cells
  production of reactive oxygen in NT rice cells, LPS treatment in NT defined as 100%: approximately 86.3%
Rice protoplasts
  production of reactive oxygen increase compared to the control: 1.7 times
NT cultured rice cells; [1]
  number of genes whose expression level decreased: 220 genes
  number of genes whose expression level increased: 746 genes
NT cultured rice cells; [2]
  FOLD INCREASE NT* AK058296 1-aminocyclopropane-1-carboxylate oxidase: 6.6 fold
  FOLD INCREASE NT* AK058891 β-1.3 glucanase: 4.1 fold
  FOLD INCREASE NT* AK060423 Alanine:glyoxylate aminotransferase like protein: 11.2 fold
  FOLD INCREASE NT* AK060582 Replication protein A1(Os-RPA1): 4.6 fold
  FOLD INCREASE NT* AK060625 GDSL-motif lipase/hydrolase: 6.4 fold
  FOLD INCREASE NT* AK060834 Calreticulin: 3.3 fold
  FOLD INCREASE NT* AK063651 Harpin induced protein: 24.7 fold
  FOLD INCREASE NT* AK066687 Shikimate kinase: 9.5 fold
  FOLD INCREASE NT* AK066784 Small GTP-binding protein (rab5A): 2.1 fold
  FOLD INCREASE NT* AK067690 NAC Transcription factor: 2.4 fold
  FOLD INCREASE NT* AK068115 Harpin induced protein: 43.1 fold
  FOLD INCREASE NT* AK068993 PAL: 48.4 fold
  FOLD INCREASE NT* AK069456 Peroxidase: 10.9 fold
  FOLD INCREASE NT* AK071482 Caffeoyl-CoA 3-O-methyl-transferase: 11.3 fold
  FOLD INCREASE NT* AK071598 Lipid transfer protein: 10.0 fold
  FOLD INCREASE NT* AK072235 Cysteine proteinase: 4.3 fold
  FOLD INCREASE NT* AK073072 CEBiP: 2.6 fold
  FOLD INCREASE NT* AK100959 beta-Expansin(EXPB3): 5.5 fold
  FOLD INCREASE NT* AK101431 Patatin-like protein: 19.6 fold
  FOLD INCREASE NT* AK102192 β-Galactosidase: 3.1 fold
  FOLD INCREASE NT* AK103094 Laccase: 10.0 fold
  FOLD INCREASE NT* AK105971 Pirin: 20.6 fold
CEBiP-RNAi #6 rice cells; [3]
  number of genes whose expression level decreased: 90 genes
  number of genes whose expression level increased: 361 genes
CEBiP-RNAi #6 rice cells; [4]
  FOLD INCREASE RNAi #6 AK058891 β-1.3 glucanase: 11.4 fold
  FOLD INCREASE RNAi #6 AK060582 Replication protein A1(Os-RPA1): 2.8 fold
  FOLD INCREASE RNAi #6 AK060834 Calreticulin: 14.2 fold
  FOLD INCREASE RNAi #6 AK065812 Zea mays NADPH HC toxin reductase: 16.0 fold
  FOLD INCREASE RNAi #6 AK066784 Small GTP-binding protein (rab5A): 2.5 fold
  FOLD INCREASE RNAi #6 AK067690 NAC Transcription factor: 3.4 fold
  FOLD INCREASE RNAi #6 AK068115 Harpin induced protein: 10.1 fold
  FOLD INCREASE RNAi #6 AK068993 PAL: 2.9 fold
  FOLD INCREASE RNAi #6 AK072235 Cysteine proteinase: 5.5 fold
  FOLD INCREASE RNAi #6 AK100959 beta-Expansin(EXPB3): 5.4 fold
  FOLD INCREASE RNAi #6 AK102192 β-Galactosidase: 2.8 fold
  FOLD INCREASE RNAi #6 AK103094 Laccase: 2.1 fold
  FOLD INCREASE RNAi #6 AK103707 Ribosome inactivating protein 2: 27.8 fold
CEBiP-RNAi #6 rice cells; [5]
  genes of the 746 increased in NT showing a suppression of two times or more: 45 genes
  genes of the 746 increased in NT showing suppression of two times or more or loss of elicitor responsiveness: 530 genes
  share of the 746 increased genes showing suppression of two times or more or loss of elicitor responsiveness: 71%
CEBiP-RNAi #6 rice cells; elicitor treatment
  genes of the 361 increased in CEBiP-RNAi #6 with increased expression levels compared to NT cells: one hundred
  genes whose expression level decreased with equivalent response in non-transformant and CEBiP-RNAi #6 rice cells: 44 genes
  genes whose expression level increased with equivalent response in non-transformant and CEBiP-RNAi #6 rice cells: 216 genes
  share of the 361 increased genes with increased expression levels compared to NT cells: approximately 28%
CEBiP-RNAi #6 rice cells; vs non-transformants
  genes decreased in NT showing suppression of two times or more or a loss in CEBiP-RNAi #6: 176 genes
  share of genes decreased in NT showing suppression of two times or more or a loss in CEBiP-RNAi #6: 80%

## N[C@H]1[C@H](O[C@H]2[C@H](O)[C@@H](N)[C@H](O[C@H]3[C@H](O)[C@@H](N)[C@H](O[C@H]4[C@H](O)[C@@H](N)[C@H](O[C@H]5[C@H](O)[C@@H](N)[C@H](O[C@H]6[C@H](O)[C@@H](N)[C@H](O[C@H]7[C@H](O)[C@@H](N)C(O)O[C@@H]7CO)O[C@@H]6CO)O[C@@H]5CO)O[C@@H]4CO)O[C@@H]3CO)O[C@@H]2CO)O[C@H](CO)[C@@H](O)[C@@H]1O (stereo partly shown) [(GlcNH2)7]
CEBiP-RNAi rice cells
  reactive oxygen responsiveness in both CEBiP-RNAi lines: Non-responsiveness

## CC(=O)N[C@H]1[C@H](O[C@H]2[C@H](O)[C@@H](NC(C)=O)[C@H](O[C@H]3[C@H](O)[C@@H](NC(C)=O)[C@H](O[C@H]4[C@H](O)[C@@H](NC(C)=O)C(O)O[C@@H]4CO)O[C@@H]3CO)O[C@@H]2CO)O[C@H](CO)[C@@H](O[C@@H]2O[C@H](CO)[C@@H](O[C@@H]3O[C@H](CO)[C@@H](O[C@@H]4O[C@H](CO)[C@@H](O)[C@H](O)[C@H]4NC(C)=O)[C@H](O)[C@H]3NC(C)=O)[C@H](O)[C@H]2NC(C)=O)[C@@H]1O (stereo partly shown) [chitin oligosaccharide elicitor]
CEBiP gene expression
  induction of expression of the target gene (CEBiP): induce expression
